Laboratory results from patent publication US20100152531A1, “IMPLANTABLE MEDICAL DEVICE FOR DRUG DELIVERY AND METHOD OF USE” (Paracor Medical, Inc., priority 2008, published 2010).
Values joined by “and” are separate entries in the source; they are usually repeats but may differ in a detail not shown here. Equal values may be shown once. Read-outs that look alike come from different tables or passages of the source.

How the values were obtained:
[1] = Half life of NONOates (diazeniumdiolates) at 37° C., pH 7.4; type: physicochemical
Description: Diazeniumdiolates, more commonly referred to as NONOates, have been extremely useful in the investigation of the biological effects of nitric oxide (NO) and related nitrogen oxides. […] FIG. 55 illustrates an exemplary chemical reaction.

[2] = tested on: coronaries of pigs; conditions: delivered intrapericardially; cited from earlier work
[3] = tested on: rats with MI; conditions: cited from earlier work
[4] = oral, cited from earlier work
[5] = tested on: mice with aortic banding; conditions: mouse, in vivo; cited from earlier work
[6] = biological target: T1, aldosterone receptors (Homo sapiens, UniProt P08235); conditions: cited from earlier work
T1 construct: host or cells: heart failure patients (in vivo)
T1 sequence (P08235 1-984): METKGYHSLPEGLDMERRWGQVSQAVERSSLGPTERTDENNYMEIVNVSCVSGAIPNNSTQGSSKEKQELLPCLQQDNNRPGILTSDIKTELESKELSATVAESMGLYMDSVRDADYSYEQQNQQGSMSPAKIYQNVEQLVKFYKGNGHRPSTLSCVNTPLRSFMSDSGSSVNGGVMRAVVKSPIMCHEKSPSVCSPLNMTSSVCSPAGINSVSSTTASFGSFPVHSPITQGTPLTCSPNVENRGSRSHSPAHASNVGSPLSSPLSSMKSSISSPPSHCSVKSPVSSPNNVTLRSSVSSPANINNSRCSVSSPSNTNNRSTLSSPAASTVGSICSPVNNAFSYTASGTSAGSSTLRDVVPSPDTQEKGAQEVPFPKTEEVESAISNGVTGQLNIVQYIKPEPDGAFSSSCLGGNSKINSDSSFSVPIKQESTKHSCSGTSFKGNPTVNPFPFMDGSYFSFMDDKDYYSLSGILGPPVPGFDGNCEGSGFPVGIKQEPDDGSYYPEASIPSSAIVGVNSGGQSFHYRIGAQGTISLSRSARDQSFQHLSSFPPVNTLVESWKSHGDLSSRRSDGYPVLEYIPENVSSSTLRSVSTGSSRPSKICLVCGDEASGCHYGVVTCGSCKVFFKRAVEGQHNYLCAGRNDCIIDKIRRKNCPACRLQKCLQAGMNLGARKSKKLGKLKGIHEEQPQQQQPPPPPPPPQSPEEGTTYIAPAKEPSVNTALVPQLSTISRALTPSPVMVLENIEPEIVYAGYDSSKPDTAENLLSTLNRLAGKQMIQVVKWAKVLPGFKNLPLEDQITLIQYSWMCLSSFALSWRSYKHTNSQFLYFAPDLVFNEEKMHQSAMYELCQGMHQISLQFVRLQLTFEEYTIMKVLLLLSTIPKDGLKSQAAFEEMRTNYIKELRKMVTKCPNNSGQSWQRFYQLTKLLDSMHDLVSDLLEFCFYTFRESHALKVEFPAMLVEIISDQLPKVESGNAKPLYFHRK

[7] = cited from earlier work

For CN(C)[N+]([O-])=N[O-].[Na+] [Compound 1, Sodium 1-(N,N-Dimthylanimo)diazen-1-ium-1,2-dilate], the “Half Life 37° C., pH 7.4” value [1] was 0.2 min.
With CN(C)/[N+]([O-])=N/[O-].[Na+] [Compound 2, Sodium (Z)-1-(N,N-Dimthylanimo)diazen-1-ium-1,2-dilate] the “Half Life 37° C., pH 7.4” value [1] was 2 min.
For NCCCN(CCCN)/[N+]([O-])=N/O [Compound 4], the “Half Life 37° C., pH 7.4” value [1] was 3 hrs.
Work on NCCN(CCN)[N+]([O-])=NO [Compound 5, 1-[N-(2-Aminoethyl)-N-(2-ammonioethyl)amino]diazen-1-ium-1,2-diolate] yielded a half-life ([1]; buffer) of 20 h.
With COCON=[N+]([O-])N1CCNCC1 [Compound 7, O^2-Methozymethyl 1-(Piperazin-1-yl)diazen-1-ium-1,2-diolate] the “Half Life 37° C., pH 7.4” value [1] was 17 days.
In the case of CC(=O)O[C@H]1C(=O)[C@@]2(C)[C@H]([C@H](OC(=O)c3ccccc3)[C@]3(O)C[C@H](OC(=O)[C@H](O)[C@@H](NC(=O)c4ccccc4)c4ccccc4)C(C)=C1C3(C)C)[C@]1(OC(C)=O)CO[C@@H]1C[C@@H]2O [Paclitaxel], the “neointimal proliferation in the coronaries in response to balloon injury” value [2] is given as “inhibit neointimal proliferation”.
In the case of CO[C@H]1C[C@@H]2CC[C@@H](C)[C@@](O)(O2)C(=O)C(=O)N2CCCC[C@H]2C(=O)O[C@H]([C@H](C)C[C@@H]2CC[C@@H](OCCO)[C@H](OC)C2)CC(=O)[C@H](C)/C=C(\C)[C@@H](O)[C@@H](OC)C(=O)[C@H](C)C[C@H](C)/C=C/C=C/C=C/1C [everolimus], the EF ([3]; compared to untreated MI rats) is given as “significant increase”, the LV end-diastolic diameter ([3]; compared to untreated MI rats) is given as “significant reduction” and the “reduction of myocyte size” value ([3]; rat, in vivo) is given as 33%.
For CO[C@H]1C[C@@H]2CC[C@@H](C)[C@@](O)(O2)C(=O)C(=O)N2CCCC[C@H]2C(=O)O[C@H]([C@H](C)C[C@@H]2CC[C@@H](O)[C@H](OC)C2)CC(=O)[C@H](C)/C=C(\C)[C@@H](O)[C@@H](OC)C(=O)[C@H](C)C[C@H](C)/C=C/C=C/C=C/1C [sirolimus], the “patients who experienced side effects (mild to severe)” value ([4]; 2 mg daily) is listed as 43%, the “patients who experienced side effects (mild to severe)” value ([4]; 5 mg daily) is listed as 66% and the “body weight, lung weight, or liver weight” value [5] is listed as “without affecting”.
For CC(=O)S[C@@H]1CC2=CC(=O)CC[C@]2(C)[C@H]2CC[C@@]3(C)[C@@H](CC[C@@]34CCC(=O)O4)[C@H]12 [spironolactone], the “blocking the aldosterone receptors and decreasing atrial natriuretic peptide concentrations” value ([6]; dose of 12.5 to 25 mg daily) is given as “effective”, the “incidence of serious hyperkalemia” value ([6]; high-risk heart failure patients, with ACE inhibitor) is given as “low incidence” and the “risk of both morbidity and death” value ([6]; high-risk heart failure patients) is given as “significantly reduced”. The “daily dose at which serious hyperkalemia occurs most frequently” value ([6]; in vivo) was ≥ 50 mg, the blood pressure decrease ([7]; doses above 150 mg) was “no additional decrease” and the incidence of gynecomastia ([7]; doses of 50 mg or less) was 8.9%. For the same molecule, the incidence of gynecomastia ([7]; doses of 150 mg or higher) was 52.2%, the blood pressure decrease ([7]; doses of 25 to 50 mg) was 5.3% and 8.5% and the blood pressure decrease ([7]; doses of 75 to 100 mg) was 12.4% and 12.2%.
